# Measurements reported in EP1561465A2, “Methods of use of fluoroquinolone compounds against bacteria” (LG Life Sciences, Ltd., priority 1999, dated 2001).
# Read-outs that look alike come from different tables or passages of the source.
# Experiments:
# [1] = system: Staphylococcus aureus; test: microbe, parasite or virus in culture; assay type: cell-based
# [2] = system: Haemophilus influenzae; test: MIC by two-fold serial agar dilution, Sensitivity Disk agar-N (Kitasato isolates); assay type: cell-based; conditions: Haemophilus influenzae (24)
# [3] = system: Streptococcus pneumoniae; test: as above; assay type: cell-based; conditions: for MIC90 / MIC / MIC50: Streptococcus pneumoniae; for MIC90: read-out: MIC90; for MIC: read-out: MIC Range; for MIC50: read-out: MIC50
# [4] = system: Moraxella catarrhalis; test: as above; assay type: cell-based; conditions: Moraxella catarrhalis (22)
# [5] = system: Campylobacter jejuni; test: MIC by agar dilution (NCCLS M7-A4), 288 enteropathogenic isolates, gemifloxacin and 15 other antimicrobials; conditions: Campylobacter jejuni
# [6] = system: Salmonella spp.; test: as above; assay type: cell-based; conditions: for MIC: Salmonella
# [7] = system: Hafnia alvei; test: as above; assay type: cell-based; conditions: Hafnia alvei N= 32
# [8] = system: Aeromonas spp.; test: as above; assay type: cell-based; conditions: for MIC: Aeromonas spp. N= 16
# [9] = system: Shigella spp.; test: as above; assay type: cell-based; conditions: for MIC: Shigella spp. N= 21
# In short: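 Agar dilution with ~10^4 cfu/spot inoculum; plates incubated aerobically at 35 °C for 24 h, except C. jejuni, held microaerophilically for 48 h. MIC taken as lowest antibiotic concentration with no visible growth.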
# [10] = system: Yersinia enterocolitica; test: as above; assay type: cell-based; conditions: for MIC: Yersinia enterocolitica N= 22
# [11] = system: Proteus mirabilis; test: MIC by agar dilution (NCCLS), 322 nosocomial Gram negative isolates, Athens 1998; assay type: cell-based; conditions: n = 57 isolates
# [12] = system: Klebsiella pneumoniae; test: as above; assay type: cell-based; conditions: n = 56 isolates
# [13] = system: Acinetobacter spp.; test: as above; assay type: cell-based; conditions: n = 38 strains
# [14] = system: Pseudomonas aeruginosa; test: as above; assay type: cell-based; conditions: n = 57 isolates
# [15] = system: Enterobacter spp.; test: as above; assay type: cell-based; conditions: n = 57 isolates
# [16] = system: Escherichia coli; test: as above; assay type: cell-based; conditions: Escherichia coli; n = 57 isolates
# [17] = 18 h, Ciprofloxacin-resistant (21), ciprofloxacin MIC ≥8 µg/ml
# [18] = 18 h, Ciprofloxacin-resistant (21)
# [19] = 18 h, Erythromycin-resistant (37)
# [20] = 18 h, Penicillin-resistant (19)
# [21] = 24 h, read-out: MIC (mg/L) Range
structure (smiles),measurement,setting,value
"CO/N=C(\C(=O)N[C@@H]1C(=O)N2C(C(=O)O)=C(/C=C\c3scnc3C)CS[C@H]12)c1csc(N)n1 [Cefditoren, cefditoren]",MIC Range,[1]; Methicillin-resistant (38),32 to 128 µg/mL
same,MIC Range,[1]; Methicillin-susceptible (9),0.5 to 1 µg/mL
same,MIC50,"[1]; Staphylococcus aureus, Methicillin-resistant (38)",128 µg/mL
same,MIC90,"[1]; Staphylococcus aureus, Methicillin-resistant (38), read-out: MIC90",128 µg/mL
same,MIC50,"[1]; Staphylococcus aureus, Methicillin-susceptible (9)",1 µg/mL
same,MIC90,"[1]; Staphylococcus aureus, Methicillin-susceptible (9), read-out: MIC90",1 µg/mL
same,MIC50,[2],0.031 µg/mL
same,MIC90,[2],0.031 µg/mL
same,MIC Range,[2],0.016 to 0.5 µg/mL
same,MIC90,[3]; [17],0.25 µg/mL
same,MIC,[3]; [18],0.008 to 1 µg/mL
same,MIC,"[3]; 18 h, Ciprofloxacin-susceptible (94)",0.008 to 2 µg/mL
same,MIC,[3]; [19],0.008 to 2 µg/mL
same,MIC,"[3]; 18 h, Minocycline-resistant (37)",0.008 to 2 µg/mL
same,MIC,[3]; [20],0.25 to 2 µg/mL
same,MIC50,[3]; Ciprofloxacin-resistant (21),≤ 0.008 µg/mL
same,MIC50,[3]; Ciprofloxacin-susceptible (94),0.063 µg/mL
same,MIC90,[3]; Ciprofloxacin-susceptible (94),0.25 µg/mL
same,MIC50,[3]; Erythromycin-resistant (37),0.063 µg/mL
same,MIC90,[3]; Erythromycin-resistant (37),0.25 µg/mL
same,MIC50,[3]; Minocycline-resistant (37),0.063 µg/mL
same,MIC90,[3]; Minocycline-resistant (37),0.25 µg/mL
same,MIC50,[3]; Penicillin-resistant (19),0.25 µg/mL
same,MIC90,[3]; Penicillin-resistant (19),2 µg/mL
same,MIC50,[4],0.5 µg/mL
same,MIC90,[4],1 µg/mL
same,MIC Range,[4],0.063 to 1 µg/mL
"CC1(C)S[C@@H]2[C@H](NC(=O)[C@H](N)c3ccc(O)cc3)C(=O)N2[C@H]1C(=O)O [Amoxycillin, amoxycillin]",MIC,[5]; read-out: MIC (mg/L) 50%,4 mg/L
same,MIC,[5]; read-out: MIC (mg/L) 90%,32 mg/L
same,susceptible isolates,"[6]; Salmonella spp., breakpoints",77%
same,MIC,"[6]; read-out: MIC (mg/L) 50%, Salmonella spp. N= 106",1 mg/L
same,MIC,"[6]; read-out: MIC (mg/L) 90%, Salmonella spp. N= 106",> 128 mg/L
same,MIC,[7]; [21],16 to 128 mg/L
same,MIC,[7]; read-out: MIC (mg/L) 50%,64 mg/L
same,MIC,[7]; read-out: MIC (mg/L) 90%,64 mg/L
same,MIC90,[1],128 µg/mL
same,MIC90,[1]; Staphylococcus aureus,64 µg/mL
same,MIC50,[2],1 µg/mL
same,MIC90,[2],64 µg/mL
same,MIC Range,[3]; Ciprofloxacin-susceptible (94),≤0.008 to 8 µg/mL
same,MIC Range,[3]; Minocycline-resistant (37),≤0.008 to 8 µg/mL
same,MIC90,[3]; [17],0.5 µg/mL
same,MIC,[3]; [18],0.016 to 1 µg/mL
same,MIC,[3]; [19],0.016 to 8 µg/mL
same,MIC,[3]; [20],0.25 to 8 µg/mL
same,MIC50,[3]; Ciprofloxacin-resistant (21),0.016 µg/mL
same,MIC50,[3]; Ciprofloxacin-susceptible (94),0.063 µg/mL
same,MIC90,[3]; Ciprofloxacin-susceptible (94),0.5 µg/mL
same,MIC50,[3]; Erythromycin-resistant (37),0.063 µg/mL
same,MIC90,[3]; Erythromycin-resistant (37),0.5 µg/mL
same,MIC50,[3]; Minocycline-resistant (37),0.063 µg/mL
same,MIC90,[3]; Minocycline-resistant (37),0.5 µg/mL
same,MIC50,[3]; Penicillin-resistant (19),0.5 µg/mL
same,MIC90,[3]; Penicillin-resistant (19),8 µg/mL
same,MIC50,[4],8 µg/mL
same,MIC90,[4],16 µg/mL
same,MIC Range,[4],1 to 16 µg/mL
same,susceptibility of isolates,[8]; Aeromonas spp.,non susceptible
same,MIC,[8]; read-out: MIC (mg/L) 50%,> 128 mg/L
same,MIC,[8]; read-out: MIC (mg/L) 90%,> 128 mg/L
same,susceptible isolates,"[9]; Shigella spp., breakpoints",43%
same,MIC,[9]; read-out: MIC (mg/L) 50%,128 mg/L
same,MIC,[9]; read-out: MIC (mg/L) 90%,> 128 mg/L
same,MIC,[10]; [21],128 mg/L
same,susceptibility of isolates,[10]; Yersinia enterocolitica,non susceptible
same,MIC,[10]; read-out: MIC (mg/L) 50%,128 mg/L
same,MIC,[10]; read-out: MIC (mg/L) 90%,128 mg/L
C[C@@H](O)[C@H]1C(=O)N2C(C(=O)O)=C(S[C@@H]3CN[C@H](C(=O)N(C)C)C3)[C@H](C)[C@H]12 [Meropenem],MIC50,[11]; Proteus mirabilis,0.03 µg/mL
same,MIC90,[11]; Proteus mirabilis,0.25 µg/mL
same,MIC Range,[11],≤0.03 to 4 µg/mL
same,MIC50,[12]; Klebsiella pneumoniae,0.03 µg/mL
same,MIC90,[12]; Klebsiella pneumoniae,0.06 µg/mL
same,MIC Range,[12],≤0.03 to 2 µg/mL
same,MIC50,[13]; Acinetobacter,2 µg/mL
same,MIC90,[13]; Acinetobacter,8 µg/mL
same,MIC Range,[13],0.06 to 16 µg/mL
same,MIC50,[14],1 µg/mL
same,MIC90,[14],16 µg/mL
same,MIC50,"[15]; Enterobacter, read-out: MIC50",0.06 µg/mL
same,MIC90,"[15]; Enterobacter, read-out: MIC90",4 µg/mL
same,MIC Range,[15],≤0.03 to 16 µg/mL
same,MIC50,[16],≤ 0.03 µg/mL
same,MIC90,[16],≤ 0.03 µg/mL
